Source: ChEMBL document CHEMBL6153144, “Conformational Role of Methyl in the Potency of Cyclohexane-Substituted Squaramide CCR6 Antagonists” (J Med Chem, 2025)

Legend:
[1] = Lipophilicity, logD of compound by shake flask method; assay type: physicochemical; settings: octanol/water
[2] = Metabolic stability in human hepatocytes assessed as apparent intrinsic clearance measured per molar; assay type: ADME, cell-based, Hepatocyte
[3] = target: Voltage-gated inwardly rectifying potassium channel KCNH2 (Homo sapiens, UniProt Q12809); test: Inhibition of hERG; assay type: toxicity
CYP (isoform not stated) = CYP (isoform not stated) (Homo sapiens, UniProt P04798+P05177+P05181+P08684+P10632+P10635+P11509+P11712+P13584+P20813+P20815+P20853+P24462+P24903+P33260+P33261+P51589+P78329+P98187+Q02928+Q08477+Q16678+Q16696+Q5TCH4+Q6VVX0+Q7Z449+Q8TAV3+Q96SQ9+Q9HB55); test: Inhibition of CYP (unknown origin) at 3 uM relative to control; assay type: ADME, protein assay

Chain of Voltage-gated inwardly rectifying potassium channel KCNH2 (Q12809 whole entry, canonical isoform): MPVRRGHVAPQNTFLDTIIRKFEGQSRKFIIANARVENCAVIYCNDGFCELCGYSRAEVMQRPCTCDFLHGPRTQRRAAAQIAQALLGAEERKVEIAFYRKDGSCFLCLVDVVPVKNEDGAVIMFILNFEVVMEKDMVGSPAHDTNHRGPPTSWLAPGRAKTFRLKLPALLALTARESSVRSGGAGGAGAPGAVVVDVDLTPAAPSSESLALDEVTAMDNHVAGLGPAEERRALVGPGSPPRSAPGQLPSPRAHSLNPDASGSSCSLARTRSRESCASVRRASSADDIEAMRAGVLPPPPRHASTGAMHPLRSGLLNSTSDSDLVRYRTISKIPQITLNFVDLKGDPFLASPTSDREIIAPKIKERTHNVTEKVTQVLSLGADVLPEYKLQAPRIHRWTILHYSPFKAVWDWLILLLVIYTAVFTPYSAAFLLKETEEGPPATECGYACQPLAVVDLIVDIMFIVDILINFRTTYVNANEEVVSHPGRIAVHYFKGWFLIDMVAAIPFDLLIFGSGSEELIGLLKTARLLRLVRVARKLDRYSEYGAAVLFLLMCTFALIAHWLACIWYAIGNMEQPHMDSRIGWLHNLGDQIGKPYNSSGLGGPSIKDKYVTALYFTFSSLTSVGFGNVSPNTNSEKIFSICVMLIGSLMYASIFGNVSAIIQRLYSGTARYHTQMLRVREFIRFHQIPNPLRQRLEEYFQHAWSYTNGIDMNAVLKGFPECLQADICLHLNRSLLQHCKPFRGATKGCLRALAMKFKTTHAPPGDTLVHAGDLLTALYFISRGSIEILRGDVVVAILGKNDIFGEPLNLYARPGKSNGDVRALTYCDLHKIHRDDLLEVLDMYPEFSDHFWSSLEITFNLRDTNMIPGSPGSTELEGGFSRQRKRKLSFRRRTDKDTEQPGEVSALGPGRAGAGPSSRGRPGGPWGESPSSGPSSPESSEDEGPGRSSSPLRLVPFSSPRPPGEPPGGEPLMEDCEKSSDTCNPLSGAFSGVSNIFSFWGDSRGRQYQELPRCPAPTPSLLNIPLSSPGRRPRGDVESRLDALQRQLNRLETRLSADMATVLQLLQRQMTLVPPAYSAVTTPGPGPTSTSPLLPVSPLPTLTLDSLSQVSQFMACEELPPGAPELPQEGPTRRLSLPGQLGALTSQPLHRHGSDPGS

| SMILES | CL(app) [2] [µL/min] | further results |
| --- | --- | --- |
| CN(C)C(=O)c1nccc(Nc2c(NC3CCCCC3)c(=O)c2=O)c1O |  | logD [1]: 0.86 |
| C[C@H]1OCCC[C@@]1(C)Nc1c(Nc2ccnc(C(=O)N(C)C)c2O)c(=O)c1=O | 3.4 |  |
| C[C@@H]1CCCC[C@@H]1Nc1c(Nc2ccnc(C(=O)N(C)C)c2O)c(=O)c1=O | 4.7 |  |
| C[C@@H]1CCC[C@H](C)[C@@H]1Nc1c(Nc2ccnc(C(=O)N(C)C)c2O)c(=O)c1=O | 6.9 |  |
| C[C@@H]1OCCC[C@]1(C)Nc1c(Nc2ccnc(C(=O)N(C)C)c2O)c(=O)c1=O | 2.9 | IC50 [3]: > 100 µM; inhibition at 3 µM (CYP (isoform not stated)): < 5% |

Further lines, with some results ahead:

| CL(app) [2] [µL/min] | SMILES | further results |
| --- | --- | --- |
| 6.8 | C[C@H]1CCCC[C@H]1Nc1c(Nc2ccnc(C(=O)N(C)C)c2O)c(=O)c1=O |  |
| 9.9 | C[C@@H]1CCCC[C@]1(C)Nc1c(Nc2ccnc(C(=O)N(C)C)c2O)c(=O)c1=O |  |
| 8.3 | C[C@H]1CCCC[C@@]1(C)Nc1c(Nc2ccnc(C(=O)N(C)C)c2O)c(=O)c1=O |  |
